In ChEMBL document CHEMBL3351640, “Design, regioselective synthesis and cytotoxic evaluation of 2-aminoimidazole-quinoline hybrids against cancer and primary endothelial cells” (Eur J Med Chem, 2014) one finds IC50 data, which are given here for 17 compounds.

Assay [1] has as its system MDA-MB-231. Put plainly: Cytotoxicity against human MDA-MB-231 cells after 48 hrs by MTT assay. The format is functional, cell-based. The note with it: MDA-MB-231, 48 h. (In general: Tetrazolium assays rely on reduction of a dye to a coloured formazan, in cell work by metabolically active cells.)
Assay [2] deals with HUVEC. Put plainly: Cytotoxicity against HUVEC cells after 48 hrs by MTT assay. The format is cell-based. The conditions noted are these: Homo sapiens.
A short description of assay [3]: Cytotoxicity against human DLD1 cells after 48 hrs by MTT assay. The format is functional, cell-based. The conditions noted are these: DLD-1, 48 h.
The nature of assay [4]: Cytotoxicity against human HCT116 cells after 48 hrs by MTT assay. The format is functional, cell-based. The note with it: HCT-116, 48 h.

In general, IC50 refers to the midpoint of a concentration-inhibition curve. Low values mean greater potency in that assay, high ones weaker potency in that assay. For the compound `Nc1nc(-c2ccccc2)cn1/N=C/c1cc2ccccc2nc1Cl`, the IC50 in assay [1] was determined as 49 µM; in assay [2] it was 46.7 µM; in assay [3], 16.4 µM; in assay [4], 6.92 µM.
In the same order, the values of `Cc1ccc(-c2cn(/N=C/c3cc4ccccc4nc3Cl)c(N)n2)cc1` are greater than 50 µM, greater than 50 µM, greater than 50 µM and greater than 50 µM.
The corresponding values for `COc1ccc(-c2cn(/N=C/c3cc4ccccc4nc3Cl)c(N)n2)cc1` are greater than 50 µM, 12.4 µM, greater than 50 µM and 31.8 µM.
The corresponding values for `Nc1nc(-c2ccc(Cl)cc2)cn1/N=C/c1cc2ccccc2nc1Cl` are greater than 50 µM, 28 µM, greater than 50 µM and greater than 50 µM.
For `Nc1nc(-c2ccc(Br)cc2)cn1/N=C/c1cc2ccccc2nc1Cl`, the IC50 in assay [1] is greater than 50 µM; in assay [2], 11.9 µM; in assay [3], 23.9 µM; in assay [4] it was greater than 50 µM.
Consider `Cc1ccc2nc(Cl)c(/C=N/n3cc(-c4ccccc4)nc3N)cc2c1`, for which the IC50 in assay [1] was 48.1 µM; in assay [2] it was 41.5 µM; in assay [3], 8.79 µM; in assay [4], 7.12 µM.
In the case of `Cc1ccc(-c2cn(/N=C/c3cc4cc(C)ccc4nc3Cl)c(N)n2)cc1`, the IC50 in assay [1] was determined as 22.3 µM; in assay [2] it was 18 µM; in assay [3] it was 25.2 µM; in assay [4], 39.6 µM.
`COc1ccc(-c2cn(/N=C/c3cc4cc(C)ccc4nc3Cl)c(N)n2)cc1`: the IC50 in assay [1] was 23.6 µM; in assay [2] it was 12.2 µM; in assay [3], 25.7 µM; in assay [4] it was greater than 50 µM.
Regarding `Cc1ccc2nc(Cl)c(/C=N/n3cc(-c4ccc(Cl)cc4)nc3N)cc2c1`, the IC50 is 35.2 µM in assay [1], 38.5 µM in assay [2], 38.9 µM in assay [3] and greater than 50 µM in assay [4].
In the same order, the values of `Cc1ccc2nc(Cl)c(/C=N/n3cc(-c4ccc(Br)cc4)nc3N)cc2c1` are 38.2 µM, 13.4 µM, 39.3 µM and 49.9 µM.
For `Nc1nc(-c2cccc3ccccc23)cn1/N=C/c1cc2ccccc2nc1Cl`, the IC50 was greater than 50 µM in assay [1], greater than 50 µM in assay [2], 9.48 µM in assay [3] and 6.34 µM in assay [4].
In the case of `Nc1nc(-c2ccc3ccccc3c2)cn1/N=C/c1cc2ccccc2nc1Cl`, the IC50 in assay [1] was greater than 50 µM; in assay [2], 36.2 µM; in assay [3], greater than 50 µM; in assay [4] it was greater than 50 µM.
For `Cc1ccc2nc(Cl)c(/C=N/n3cc(-c4cccc5ccccc45)nc3N)cc2c1`, the IC50 in assay [1] is greater than 50 µM; in assay [2] it was 9.58 µM; in assay [3] it was 8.3 µM; in assay [4], 5.84 µM.
In the same order, the values of `Cc1ccc2nc(Cl)c(/C=N/n3cc(-c4ccc5ccccc5c4)nc3N)cc2c1` are 35.6 µM, 11.3 µM, 10.2 µM and 27.4 µM.
In the same order, the values of `Nc1nc(-c2cccs2)cn1/N=C/c1cc2ccccc2nc1Cl` are greater than 50 µM, 10.2 µM, 10.3 µM and 7.22 µM.
The corresponding values for `Cc1ccc2nc(Cl)c(/C=N/n3cc(-c4cccs4)nc3N)cc2c1` are greater than 50 µM, 38 µM, 8.99 µM and 7.71 µM.
As for `COc1cccc2c1C(=O)c1c(O)c3c(c(O)c1C2=O)C[C@@](O)(C(=O)CO)C[C@@H]3O[C@H]1C[C@H](N)[C@H](O)[C@H](C)O1` [DOXORUBICIN], the IC50 stood at 1.47 µM in assay [1], 0.84 µM in assay [3] and 0.34 µM in assay [4].
